Results: PubChem BioAssay (NCI)
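Grown in 96-well plates, cells were treated for 48 hours with each compound at five concentrations. Insufficient inhibition: endpoint recorded as highest concentration tested. TGI: concentration producing complete growth inhibition.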

What was measured:
Assay in all cases: growth of human tumour cells (NCI), 48 h
SNB-19 CNS = tested on: SNB-19 CNS
SK-OV-3 ovarian = tested on: SK-OV-3 ovarian
NCI-H522 lung = tested on: NCI-H522 lung
MALME-3M melanoma = tested on: MALME-3M melanoma
NCI-H23 lung = tested on: NCI-H23 lung
SK-MEL-28 melanoma = tested on: SK-MEL-28 melanoma
786-0 renal = tested on: 786-0 renal
A498 renal = tested on: A498 renal
SR leukemia = tested on: SR leukemia
HOP-62 NSCLC = tested on: HOP-62 NSCLC
UACC-257 melanoma = tested on: UACC-257 melanoma
RPMI-8226 leukemia = tested on: RPMI-8226 leukemia
CCRF-CEM leukemia = tested on: CCRF-CEM leukemia
SN12C renal = tested on: SN12C renal
OVCAR-3 ovarian = tested on: OVCAR-3 ovarian
LOX IMVI melanoma = tested on: LOX IMVI melanoma
MOLT-4 leukemia = tested on: MOLT-4 leukemia
SF-295 CNS = tested on: SF-295 CNS
HCC-2998 colon = tested on: HCC-2998 colon
DU-145 prostate = tested on: DU-145 prostate

Measured: TGI

CC12C3CC4C5CC(C(C53)[C@@H]1NCc1ccccc1)C42 (stereo not given in full)
41.8 µM: HCC-2998 colon
not listed: DU-145 prostate
> 100 µM: all other assays above

Cc1c(C(=O)Nc2ccccc2)nnn1-c1ccnc2cc(C(F)(F)F)ccc12
78.1 µM: LOX IMVI melanoma
79.6 µM: MOLT-4 leukemia
81.5 µM: CCRF-CEM leukemia
not listed: SR leukemia | HOP-62 NSCLC | RPMI-8226 leukemia
> 100 µM: all other assays above

NNC(=O)CC(=O)Nc1ccc(S(=O)(=O)c2ccc(NC(=O)CC(=O)NN)cc2)cc1
not listed: MALME-3M melanoma | SR leukemia | LOX IMVI melanoma
> 100 µM: all other assays above

CN(CCNC(=O)c1nn(-c2ccc(Cl)cc2Cl)c2c1Cc1ccccc1-2)CCNC(=O)c1nn(-c2ccc(Cl)cc2Cl)c2c1Cc1ccccc1-2
4.72 µM: UACC-257 melanoma
3.71 µM: NCI-H522 lung
20.4 µM: SN12C renal
17.4 µM: OVCAR-3 ovarian
3.42 µM: MALME-3M melanoma
> 100 µM: SNB-19 CNS
6.81 µM: MOLT-4 leukemia
4.97 µM: SK-MEL-28 melanoma
> 45.8 µM: HOP-62 NSCLC
4.5 µM: RPMI-8226 leukemia
12.9 µM: A498 renal
3.26 µM: HCC-2998 colon
30.2 µM: NCI-H23 lung
97.9 µM: SK-OV-3 ovarian
> 61.9 µM: DU-145 prostate
7.82 µM: CCRF-CEM leukemia
4.47 µM: 786-0 renal
5.19 µM: SF-295 CNS

CN/N=C(\C(=O)Nc1ccc(C(F)(F)F)cc1[N+](=O)[O-])C(c1cnc2ccc([N+](=O)[O-])cc2n1)[N+](=O)[O-] (stereo not given)
66.3 µM: NCI-H522 lung
84.8 µM: HCC-2998 colon
not listed: DU-145 prostate
> 100 µM: all other assays above

Cc1oc2nc(N(C)C)nc(NN)c2c1C
not listed: SK-OV-3 ovarian | MALME-3M melanoma | SR leukemia | LOX IMVI melanoma
> 100 µM: all other assays above

CCCCc1nc(C)oc1C(C)C
not listed: SNB-19 CNS | SR leukemia | RPMI-8226 leukemia
> 100 µM: all other assays above

CN1N=C2c3ccccc3OC(c3ccccc3)[C@H]2C1c1ccccc1 (stereo not given in full)
78.3 µM: MALME-3M melanoma
not listed: DU-145 prostate
> 100 µM: all other assays above

COc1cccc(C=O)c1[O-].COc1cccc(C=O)c1[O-].[Zn+2]
92.6 µM: OVCAR-3 ovarian
99.2 µM: UACC-257 melanoma
68.1 µM: SF-295 CNS
not listed: DU-145 prostate
> 100 µM: all other assays above

O=C1NC(=S)NC(=O)C1=CC1CC1
not listed: OVCAR-3 ovarian | DU-145 prostate
> 100 µM: all other assays above

CCOP(=O)(Nc1ccc(-c2ccc(N)cc2)cc1)OCC
not listed: SR leukemia | CCRF-CEM leukemia | SN12C renal | LOX IMVI melanoma
> 100 µM: all other assays above
